Patent US8871934B2, “Fluorene compound and pharmaceutical use thereof” (Japan Tobacco Inc., priority 2008, dated 2014)
Where two headings read alike, the source gives them in different places.

Biological target: human PDHK2 (hPDHK2) (Homo sapiens (Human), UniProt Q15119)
Assay: Inhibitory action of PDHK activity in vitro (kinase reaction, residual PDH activity measured)
Format: biochemical
[1] = class symbol of IC50, read-out: PDHK inhibitory activity
[2] = read-out: PDHK inhibitory activity IC50
[3] = PDHK inhibitory activity, class symbol of IC50
[4] = read-out: PDHK inhibitory activity (class symbol)

SMILES | IC50 [1] [nM] | IC50 [2] [nM] | IC50 [3] [nM] | IC50 [4] [nM] | IC50 (PDHK inhibitory activity (class symbol)) [nM]
OC1(C(F)(F)F)c2ccccc2-c2ccc(Cn3cccn3)cc21 (centres unmarked) [compound 559] | > 1000 | > 1000 |  |  | 
OC1(C(F)(F)F)c2ccccc2-c2ccc(-n3cccn3)cc21 (centres unmarked) [compound 560] |  | 970 | 100 to 1000 |  | 
Cn1cc(-c2cnc3c(c2)C(O)(C(F)(F)F)c2ccccc2-3)cn1 (centres unmarked) [compound 562] |  | 59 | < 100 |  | 
OCCn1cc(-c2cnc3c(c2)C(O)(C(F)(F)F)c2ccccc2-3)cn1 (centres unmarked) [compound 563] |  | 63 | < 100 |  | 
Cn1cc(-c2cc(O)cc3c2-c2ccccc2C3(O)C(F)(F)F)cn1 (centres unmarked) [compound 564] |  | 105 | 100 to 1000 |  | 
Cc1nn(C)c(C)c1-c1cccc2c1-c1ccccc1C2(O)C(F)(F)F (centres unmarked) [compound 567] | > 1000 | > 1000 |  |  | 
O=C(O)CCn1cc(-c2cnc3c(c2)C(O)(C(F)(F)F)c2ccccc2-3)cn1 (centres unmarked) [compound 568] |  | 83 | < 100 |  | 
Cn1cc(-c2cc(N3CCOCC3)cc3c2-c2ccccc2C3(O)C(F)(F)F)cn1 (centres unmarked) [compound 569] |  | 44 | < 100 |  | 
Cn1cc(-c2cc(CO)c3c(c2)C(O)(C(F)(F)F)c2ccccc2-3)cn1 (centres unmarked) [compound 570] |  | 110 | 100 to 1000 |  | 
Cn1cc(-c2cc(OCC(O)CO)cc3c2-c2ccccc2C3(O)C(F)(F)F)cn1 (centres unmarked) [compound 571] |  | 50 | < 100 |  | 
O=C(c1cc(CO)c2c(c1)C(O)(C(F)(F)F)c1ccccc1-2)N1CCCC1 (centres unmarked) [compound 572] |  | 109 | 100 to 1000 |  | 
C#Cc1cc(-c2cnn(C)c2)cc2c1-c1ccccc1C2(O)C(F)(F)F (centres unmarked) [compound 578] |  | 78 | < 100 |  | 
Cn1cc(-c2cc(-c3cnn(C)c3)c3c(c2)C(O)(C(F)(F)F)c2ccccc2-3)cn1 (centres unmarked) [compound 579] |  | 19 | < 100 |  | 
OCCn1cc(-c2cc(-c3cnn(CCO)c3)c3c(c2)C(O)(C(F)(F)F)c2ccccc2-3)cn1 (centres unmarked) [compound 580] |  | 21 | < 100 |  | 
O=C1CCCN1CCOc1cc(CO)c2c(c1)C(O)(C(F)(F)F)c1ccccc1-2 (centres unmarked) [compound 583] |  | 64 | < 100 |  | 
Cc1cc(-c2cnn(CCO)c2)cc2c1-c1ccccc1C2(O)C(F)(F)F (centres unmarked) [compound 584] |  | 77 | < 100 |  | 
CC(=O)c1cc(-c2cnn(CCO)c2)cc2c1-c1ccccc1C2(O)C(F)(F)F (centres unmarked) [compound 585] |  | 26 | < 100 |  | 

SMILES | IC50 [1] [nM] | IC50 [2] [nM] | IC50 [3] [nM] | IC50 [4] [nM] | IC50 (PDHK inhibitory activity (class symbol)) [nM]
CC(O)c1cc(-c2cnn(CCO)c2)cc2c1-c1ccccc1C2(O)C(F)(F)F (centres unmarked) [compound 586] |  | 513 | 100 to 1000 |  | 
CCn1cc(-c2cc(C(C)=O)c3c(c2)C(O)(C(F)(F)F)c2ccccc2-3)cn1 (centres unmarked) [compound 587] |  | 21 | < 100 |  | 
OCCn1cc(-c2ccc3c(c2)C(O)(C(F)(F)F)c2cccc(CO)c2-3)cn1 (centres unmarked) [compound 590] |  | 5920 | > 1000 |  | 
Cn1cc(-c2cc(C(C)(C)O)c3c(c2)C(O)(C(F)(F)F)c2ccccc2-3)cn1 (centres unmarked) [compound 591] | > 1000 | > 1000 |  |  | 
CC(C)(O)c1cc(-c2cnn(CCO)c2)cc2c1-c1ccccc1C2(O)C(F)(F)F (centres unmarked) [compound 592] | > 1000 | > 1000 |  |  | 
CC(C)n1cc(-c2ccc3c(c2)C(O)(C(F)(F)F)c2cccc(CO)c2-3)cn1 (centres unmarked) [compound 593] | > 1000 | > 1000 |  |  | 
CC(=O)c1cc(-c2cnn(CCC(=O)O)c2)cc2c1-c1ccccc1C2(O)C(F)(F)F (centres unmarked) [compound 594] |  | 48 | < 100 |  | 
CC(=O)c1cc(-c2cnn(C)c2)cc2c1-c1ccccc1C2(O)C(F)(F)F (centres unmarked) [compound 596] |  | 41 | < 100 |  | 
CCn1cc(-c2ccc3c(c2)C(O)(C(F)(F)F)c2cccc(CO)c2-3)cn1 (centres unmarked) [compound 597] | > 1000 | > 1000 |  |  | 
CC(O)c1cc(-c2cnn(C)c2)cc2c1-c1ccccc1C2(O)C(F)(F)F (centres unmarked) [compound 598] |  | 653 | 100 to 1000 |  | 
CC(=O)c1cc(OCCN2CCCC2=O)cc2c1-c1ccccc1C2(O)C(F)(F)F (centres unmarked) [compound 599] |  | 33 | < 100 |  | 
O=C(O)CCn1cc(-c2ccc3c(c2)C(O)(C(F)(F)F)c2cccc(CO)c2-3)cn1 (centres unmarked) [compound 600] | > 1000 | > 1000 |  |  | 
NC(=O)CCn1cc(-c2ccc3c(c2)C(O)(C(F)(F)F)c2cccc(CO)c2-3)cn1 (centres unmarked) [compound 601] |  | > 1000 |  | > 1000 | 
CC(C)(C)n1cc(-c2ccc3c(c2)C(O)(C(F)(F)F)c2cccc(CO)c2-3)cn1 (centres unmarked) [compound 602] |  | > 1000 |  | > 1000 | 
Cn1cc(-c2cc(C#CCO)c3c(c2)C(O)(C(F)(F)F)c2ccccc2-3)cn1 (centres unmarked) [compound 603] |  | 228 |  |  | 100 to 1000
O=C(O)Cn1cc(-c2ccc3c(c2)C(O)(C(F)(F)F)c2cccc(CO)c2-3)cn1 (centres unmarked) [compound 608] |  | > 1000 |  | > 1000 | 
NC(=O)Cn1cc(-c2ccc3c(c2)C(O)(C(F)(F)F)c2cccc(CO)c2-3)cn1 (centres unmarked) [compound 609] |  | > 1000 |  | > 1000 | 
